Assay results from PMC6390180, “Functionality of membrane proteins overexpressed and purified from E. coli is highly dependent upon the strain” (Scientific Reports, 2019).

Target: T1, PatA/PatB (Streptococcus pneumoniae, UniProt Q8DN70+Q8DN72)
T1 construct: gene ABC-NP; full heterodimer co-expressed from pETDuet-1-PatA/PatB in E. coli C41(DE3), BL21(DE3), T7 express or Lemo21(DE3); His-tagged; inverted membrane vesicles, or purified in LMNG / proteoliposomes
Assay: fluorescence transport assay, inverted membrane vesicles
Format: biochemical
Conditions: 1 µM Hoechst 33342, 2 mM GTP, 2 mM MgCl2, pH 8.0, 25 °C; transported drug

T1 sequence (Q8DN70 entry or part of it): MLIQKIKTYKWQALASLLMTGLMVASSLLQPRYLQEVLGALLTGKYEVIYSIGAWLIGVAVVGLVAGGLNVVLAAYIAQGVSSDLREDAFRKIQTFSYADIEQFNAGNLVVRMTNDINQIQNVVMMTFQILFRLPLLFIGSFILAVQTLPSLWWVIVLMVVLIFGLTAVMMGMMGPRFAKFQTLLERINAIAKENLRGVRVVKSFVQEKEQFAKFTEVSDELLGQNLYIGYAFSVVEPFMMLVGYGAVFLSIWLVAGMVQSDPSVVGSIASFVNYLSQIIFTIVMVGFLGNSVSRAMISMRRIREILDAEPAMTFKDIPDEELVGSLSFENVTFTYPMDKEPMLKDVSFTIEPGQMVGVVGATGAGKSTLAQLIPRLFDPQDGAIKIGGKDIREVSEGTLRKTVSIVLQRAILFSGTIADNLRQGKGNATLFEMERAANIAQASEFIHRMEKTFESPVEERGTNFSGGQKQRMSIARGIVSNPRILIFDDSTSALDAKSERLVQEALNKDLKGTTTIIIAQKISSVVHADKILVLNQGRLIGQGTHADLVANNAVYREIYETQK
T1 sequence (Q8DN72 entry or part of it): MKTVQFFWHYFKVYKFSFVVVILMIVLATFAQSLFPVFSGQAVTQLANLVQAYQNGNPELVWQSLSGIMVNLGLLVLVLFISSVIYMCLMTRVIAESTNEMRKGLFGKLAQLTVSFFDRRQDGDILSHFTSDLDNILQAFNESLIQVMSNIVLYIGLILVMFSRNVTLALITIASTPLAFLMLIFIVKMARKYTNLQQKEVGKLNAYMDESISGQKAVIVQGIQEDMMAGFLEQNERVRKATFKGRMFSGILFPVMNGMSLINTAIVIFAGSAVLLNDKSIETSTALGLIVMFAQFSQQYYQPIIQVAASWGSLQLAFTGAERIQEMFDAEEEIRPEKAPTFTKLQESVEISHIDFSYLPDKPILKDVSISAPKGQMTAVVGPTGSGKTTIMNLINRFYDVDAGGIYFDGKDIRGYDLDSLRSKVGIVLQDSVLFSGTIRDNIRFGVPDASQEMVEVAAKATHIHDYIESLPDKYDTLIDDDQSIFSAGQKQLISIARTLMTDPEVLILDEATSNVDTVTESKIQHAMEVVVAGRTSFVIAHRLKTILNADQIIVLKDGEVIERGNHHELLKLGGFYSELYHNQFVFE

Structure (SMILES): CCOc1ccc(-c2nc3ccc(-c4nc5ccc(N6CCN(C)CC6)cc5[nH]4)cc3[nH]2)cc1 [Hoechst 33342, 2-(4-ethoxyphenyl)-5-(4-methyl-1-piperazinyl)-2,5-bis-1H-benzimidazole]
- fluorescence transport assay, inverted membrane vesicles: a fluorescent drug translocated by PatA/PatB
